Experimental data published in patent publication US8445440B2, “Dimeric IAP inhibitors” (Novartis AG, priority 2010, dated 2013).

Tests used:
XIAP-BIR3 = XIAP-BIR3 (Homo sapiens, UniProt P98170); test: Biacore SPR solution competition binding assay vs smac7 mer peptide, XIAP-BIR3; settings: citrate salt form tested; 100 nM XIAP-BIR3; 25° C.; read-out: XIAP-BIR3 Binding Biacore (Competitive) EC50
Excerpt: (§1) The compounds described herein above were profiled using a cellular assay (using SKOV3 or Panc3.27 tumor cells) and a binding assay to determine the competition between the compounds of the present invention and smac7 mer peptide for XIAP-BIR3 and cIAP1-BIR3 binding groove occupancy.
(§2) The present method includes utility of a Surface plasmon resonance (SPR)-based biosensor (Biacore™ GE Healthcare, Uppsala, Sweden) to examine competition between the compounds of the present invention and smac7 mer peptide for XIAP-BIR3 and cIAP1-BIR3 binding groove occupancy.
(§3) Biacore™ utilizes the phenomenon of surface plasmon resonance (SPR) to detect and measure binding interactions. In a typical Biacore experiment, one of the interacting molecules is immobilized on a flexible dextran matrix while the interacting partner is flowed over the derivatized surface. A binding interaction results in an increase in mass on the sensor surface and a corresponding direct change in the refractive index of the medium in the vicinity of the sensor surface. Changes in refractive index or signal are recorded in resonance units (R.U.) Signal changes due to association and dissociation of complexes are monitored in a non-invasive manner, continuously and in real-time, the results of which are reported in the form of a sensorgram.
(§4) Biacore™ T100 (GE Healthcare, Uppsala, Sweden) was used to conduct all experiments reported herein. Sensor surface preparation and interaction analyses were performed at 25° C. Buffer and Biacore reagents were purchased from GE Healthcare. Running buffer containing 10 mM Hepes, pH7.4, 150 mM sodium chloride, 1.25 mM Dithiothreitol, 2% Dimethyl sulfoxide and 0.05% polysorbate 20 was utilized throughout all experiments.
(§5) Biotinylated smac7 mer peptide was diluted to 10 nM in running buffer and captured onto a sensor surface pre-derivatized with streptavidin (sensor chip SA) towards peptide surface densities in the range 40-100 R.U. Peptide captured surfaces were blocked with 500 μM PEO2-Biotin (Thermo Scientific).
(§6) Interaction analyses were performed by first equilibrating each compound within a six point seven fold compound dilution series in the range 1 μM to 0.06 nM with either 100 nM XIAP-BIR3 or 6 nM cIAP1-BIR3 for at least one hour during instrument start-up procedures. Protein compound mixtures were then injected over reference and smac7 mer peptide surfaces in series for 60 seconds at a flow-rate of 64 μL/minutes. Surface regeneration was performed at the end of each analysis cycle by a 30 second injection of 10 mM Glycine, pH 2.5, 1M Sodium Chloride, 0.05% polysorbate 20. Additionally, control compound samples and control XIAP-BIR3 or cIAP1-BIR3 samples were prepared and run at regular intervals to monitor surface and assay performance.
(§7) Data analyses were carried out using Biacore™ T100 evaluation software v2.0 to validate assay quality. Binding level report points were plotted versus logarithmic compound concentration values and analyzed in Graphpad prism 5 via non-linear regression using a one-site competition model. EC50 values were generated and used as a measure of inhibitor potency.

cIAP1-BIR3 = cIAP1-BIR3 (Homo sapiens, UniProt Q13490); test: Biacore SPR solution competition binding assay vs smac7 mer peptide, cIAP1-BIR3; settings: citrate salt form tested; 6 nM cIAP1-BIR3; 25° C.; read-out: CIAP-BIR3 Binding Biacore (Competitive) EC50
Excerpt: as §1, §2, §3, §4, §5, §6, §7

SKOV3 tumor cells = test: Cellular assay, SKOV3 tumor cell proliferation (Cell Titer Glo); type: cell-based; settings: Homo sapiens, SK-OV-3, citrate salt form tested, 72 hour growth
Method: as §1
(§8) On day one adherent SKOV3 and Panc3.27 cells are plated into two 96-well, clear, flat bottom plates. All wells in row A contain 90 uL of media. All wells in rows B-G contain a total volume of 90 uL per well and 2000 cells per well for SKOV3 and 4000 cells per well for Panc3.27 cell lines. Plates are then incubated overnight for 18 hours at 37° C., 5% CO2.
(§9) On day two cells are treated with the compounds of formula M-L-M′. Treatments are done in triplicate. The compounds are first serially diluted in DMSO and then added to media giving a final concentration of 0.2% DMSO when added to cells. Cells are treated with 10 uL of serially diluted compounds of formula M-L-M′ at a final concentration of 1000 nM, 200 nM, 40 nM, 8 nM, 1.6 nM, 0.32 nM, 0.06 nM, 0.013 nM, 0.0026 nM, and one untreated well. Plate two is used as a time zero plate.
(§10) To measure cell viability 50 uL of Cell Titer Glo (CTG) solution is added to row A, media only and B, cells and media. CTG is purchased from Promega Corporation catalog number G7573. The solution is prepared according to manufacturer's instructions. CTG measures the amount of ATP released from viable cells that is proportional to the number of cells in each well. After incubating for ten minutes with CTG plates are measured on a luminescent reader at 700 nm wavelength. Read time is approximately one second per well for a 96-well plate.
(§11) On day five 50 uL of CTG is added to plate one, rows A-G, incubated for 10 minutes at room temperature and read on a luminescent reader. Raw data is adjusted to account for the time zero plate as well as background noise. Triplicate values are averaged and percent control growth is calculated. Percent control growth is calculated using the following logical test: If well read data point (a) is greater than time zero data point (t=0), then 100*[(a)−(t=0)]/[(72 hour total growth)−(t=0)], OR 100*[(a)−(t=0)]/[(t=0)]. Data is represented by line graph with the concentration of compound on the x axis and percent control growth on the y axis.

Panc3.27 tumor cells = test: Cellular assay, Panc3.27 tumor cell proliferation (Cell Titer Glo); type: cell-based; settings: citrate salt form tested, Panc3.27 cells, 72 hour growth, read-out: PANC proliferation IC50
Method: as §1, §8, §9, §10, §11

XIAP-BIR3, sequence (P98170 241-356 limits assumed): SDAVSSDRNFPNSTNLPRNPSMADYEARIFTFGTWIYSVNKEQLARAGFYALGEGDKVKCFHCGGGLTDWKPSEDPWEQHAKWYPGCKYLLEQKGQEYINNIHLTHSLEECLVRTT
cIAP1-BIR3, sequence (Q13490 260-352 limits assumed): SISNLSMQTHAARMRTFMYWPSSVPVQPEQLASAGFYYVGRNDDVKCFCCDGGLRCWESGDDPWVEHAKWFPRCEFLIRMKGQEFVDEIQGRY

CN[C@@H](C)C(=O)N[C@@H](CCCCNC(=O)CCCCCCCCC(=O)NCCCC[C@H](NC(=O)[C@H](C)NC)C(=O)N1CCC[C@H]1c1cncc(C(=O)c2ccc(F)cc2)c1)C(=O)N1CCC[C@H]1c1cncc(C(=O)c2ccc(F)cc2)c1 [Example 1G, Decanedioic acid bis-{[(S)-6-{(S)-2-[5-(4-fluoro-benozyl)-pyridin-3-yl]-pyrrolidin-1-yl}-5-((S)-2-methylamino-propionylamino)-6-oxo-hexyl]-amide}]
EC50 (XIAP-BIR3): 97.2 to 108 nM
EC50 (cIAP1-BIR3): 0.71 nM
IC50 (SKOV3 tumor cells): 9.64 to 16.4 nM
IC50 (Panc3.27 tumor cells): 5.22 to 27.9 nM

CN[C@@H](C)C(=O)N[C@@H](Cc1ccc(NC(=O)CCCCCC(=O)Nc2ccc(C[C@H](NC(=O)[C@H](C)NC)C(=O)N3CCC[C@H]3c3cncc(C(=O)c4ccc(F)cc4)c3)cc2)cc1)C(=O)N1CCC[C@H]1c1cncc(C(=O)c2ccc(F)cc2)c1 [Example 2A, Heptanedioic acid bis-({4-[(S)-3-{(S)-2-[5-(4-fluoro-benzoyl)-pyridin-3-yl]-pyrrolidin-1-yl}-2-((S)-2-methylamino-propionylamino)-3-oxo-propyl]-phenyl}-amide)]
EC50 (XIAP-BIR3): 146 to 154 nM
EC50 (cIAP1-BIR3): 0.73 to 0.74 nM
IC50 (SKOV3 tumor cells): 23.5 to 25.8 nM

CN[C@@H](C)C(=O)N[C@@H](Cc1ccc(NC(=O)CCCC(=O)Nc2ccc(C[C@H](NC(=O)[C@H](C)NC)C(=O)N3CCC[C@H]3c3cncc(C(=O)c4ccc(F)cc4)c3)cc2)cc1)C(=O)N1CCC[C@H]1c1cncc(C(=O)c2ccc(F)cc2)c1 [Example 2F, Pentanedioic acid bis-({4-[(S)-3-{(S)-2-[5-(4-fluoro-benzoyl)-pyridin-3-yl]-pyrrolidin-1-yl}-2-((S)-2-methylamino-propionylamino)-3-oxo-propyl]-phenyl}-amide)]
EC50 (XIAP-BIR3): 123 to 126 nM
EC50 (cIAP1-BIR3): 0.7 nM
IC50 (SKOV3 tumor cells): ≥ 967 nM
IC50 (Panc3.27 tumor cells): 88.3 to 393 nM

CN[C@@H](C)C(=O)N[C@@H](CCCCNS(=O)(=O)c1ccc(-c2ccc(S(=O)(=O)NCCCC[C@H](NC(=O)[C@H](C)NC)C(=O)N3CCC[C@H]3c3cncc(C(=O)c4ccc(F)cc4)c3)cc2)cc1)C(=O)N1CCC[C@H]1c1cncc(C(=O)c2ccc(F)cc2)c1 [Example 1D, (S)-N-((S)-1-((S)-2-(5-(4-fluorobenzoyl)pyridin-3-yl)pyrrolidin-1-yl)-6-(4′-(N-((S)-6-((S)-2-(5-(4-fluorobenzoyl)pyridin-3-yl)pyrrolidin-1-yl)-5-((S)-2-(methylamino)propanamido)-6-oxohexyl)sulfamoyl)biphenyl-4-ylsulfonamido)-1-oxohexan-2-yl)-2-(methylamino)propanamide]
EC50 (XIAP-BIR3): 88.5 to 129 nM
EC50 (cIAP1-BIR3): 0.31 to 0.34 nM
IC50 (SKOV3 tumor cells): 37.4 to 84.2 nM
IC50 (Panc3.27 tumor cells): 12.3 to 119 nM

CN[C@@H](C)C(=O)N[C@@H](CCCCNC(=O)CCCCCCCC(=O)NCCCC[C@H](NC(=O)[C@H](C)NC)C(=O)N1CCC[C@H]1c1cncc(C(=O)c2ccc(F)cc2)c1)C(=O)N1CCC[C@H]1c1cncc(C(=O)c2ccc(F)cc2)c1 [Example 1F, Nonanedioic acid bis-{[(S)-6-{(S)-2-[5-(4-fluoro-benzoyl)-pyridin-3-yl]-pyrrolidin-1-yl}-5-((S)-2-methylamino-propionylamino)-6-oxo-hexyl]-amide}]
EC50 (XIAP-BIR3): 129 to 145 nM
EC50 (cIAP1-BIR3): 0.68 to 0.69 nM
IC50 (SKOV3 tumor cells): 16.1 to 20.1 nM
IC50 (Panc3.27 tumor cells): 12.8 to 106 nM

CN[C@@H](C)C(=O)N[C@@H](CCCCNC(=O)c1ccc(C(=O)NCCCC[C@H](NC(=O)[C@H](C)NC)C(=O)N2CCC[C@H]2c2cncc(C(=O)c3ccc(F)cc3)c2)cc1)C(=O)N1CCC[C@H]1c1cncc(C(=O)c2ccc(F)cc2)c1 [Example 1C, N,N′-Bis-[(S)-6-{(S)-2-[5-(4-fluorobenzoyl)-pyridin-3-yl]-pyrrolidin-1-yl}-5-((S)-2-methylamino-propionylamino)-6-oxo-hexyl]-terephthalamide]
EC50 (XIAP-BIR3): 413 to 425 nM
EC50 (cIAP1-BIR3): 4.75 to 4.89 nM
IC50 (SKOV3 tumor cells): 84 to 127 nM
IC50 (Panc3.27 tumor cells): 63.3 to 147 nM

CN[C@@H](C)C(=O)N[C@@H](Cc1ccc(NC(=O)CCCCCCCCC(=O)Nc2ccc(C[C@H](NC(=O)[C@H](C)NC)C(=O)N3CCC[C@H]3c3cncc(C(=O)c4ccc(F)cc4)c3)cc2)cc1)C(=O)N1CCC[C@H]1c1cncc(C(=O)c2ccc(F)cc2)c1 [Example 2B, Decanedioic acid bis-({4-[(S)-3-{(S)-2-[5-(4-fluoro-benzoyl)-pyridinyl-3-yl]-pyrrolidin-1-yl}-2-((S)-2-methylamino-propionylamino)-3-oxo-propyl]-phenyl}-amide)]
EC50 (XIAP-BIR3): 131 to 194 nM
EC50 (cIAP1-BIR3): 0.37 to 0.41 nM
IC50 (SKOV3 tumor cells): 7.39 to 15.4 nM
IC50 (Panc3.27 tumor cells): 11.7 to 25.9 nM

CN[C@@H](C)C(=O)N[C@@H](CCCCNS(=O)(=O)c1ccc2ccc(S(=O)(=O)NCCCC[C@H](NC(=O)[C@H](C)NC)C(=O)N3CCC[C@H]3c3cncc(C(=O)c4ccc(F)cc4)c3)cc2c1)C(=O)N1CCC[C@H]1c1cncc(C(=O)c2ccc(F)cc2)c1 [Example 1H, (S)-N-((S)-1-((S)-2-(5-(4-fluorobenzoyl)pyridin-3-yl)pyrrolidin-1-yl)-6-(7-(N-((S)-6-((S)-2-(5-(4-fluorobenzoyl)pyridin-3-yl)pyrrolidin-1-yl)-5-((S)-2-(methylamino)propanamido)-6-oxohexyl)sulfamoyl)naphthalene-2-sulfonamido)-1-oxohexan-2-yl)-2-(methylamino)propanamide]
EC50 (XIAP-BIR3): 46.3 to 53.5 nM
EC50 (cIAP1-BIR3): 0.88 nM
IC50 (SKOV3 tumor cells): 80.8 to 86.4 nM
IC50 (Panc3.27 tumor cells): 13.3 to 140 nM

CN[C@@H](C)C(=O)N[C@@H](Cc1ccc(NC(=O)CCCCCCCC(=O)Nc2ccc(C[C@H](NC(=O)[C@H](C)NC)C(=O)N3CCC[C@H]3c3cncc(C(=O)c4ccc(F)cc4)c3)cc2)cc1)C(=O)N1CCC[C@H]1c1cncc(C(=O)c2ccc(F)cc2)c1 [Example 2E, Nonanedioic acid bis-({4-[(S)-3-{(S)-2-[5-(4-fluoro-benzoyl)-pyridin-3-yl]-pyrrolidin-1-yl}-2-((S)-2-methylamino-propionylamino)-3-oxo-propyl]-phenyl}-amide)]
EC50 (XIAP-BIR3): 99.4 to 104 nM
EC50 (cIAP1-BIR3): 0.73 to 0.81 nM
IC50 (SKOV3 tumor cells): 17.1 to 23.5 nM
IC50 (Panc3.27 tumor cells): 37.6 to 95.7 nM

CN[C@@H](C)C(=O)N[C@@H](Cc1ccc(NC(=O)CCCCC(=O)Nc2ccc(C[C@H](NC(=O)[C@H](C)NC)C(=O)N3CCC[C@H]3c3cncc(C(=O)c4ccc(F)cc4)c3)cc2)cc1)C(=O)N1CCC[C@H]1c1cncc(C(=O)c2ccc(F)cc2)c1 [Example 2C, Hexanedioic acid bis-({4-[(S)-3-{(S)-2-[5-(4-fluoro-benzoyl)-pyridin-3-yl]-pyrrolidin-1-yl}-2-((S)-2-methylamino-propionylamino)-3-oxo-propyl]-phenyl}-amide)]
EC50 (XIAP-BIR3): 125 to 138 nM
EC50 (cIAP1-BIR3): 0.58 to 0.6 nM
IC50 (SKOV3 tumor cells): 59.7 to 317 nM
IC50 (Panc3.27 tumor cells): 144 to 391 nM
